Measured values taken from ChEMBL document CHEMBL1122870, “Synthesis and LTD4 antagonist activity of 2-norleukotriene analogues” (1985).
Active and inactive are the calls of the source. No cut-off for these calls is given here.

Key:
Type in all cases: functional
Cavia porcellus [1] = species: Cavia porcellus; assay: Evaluated for antagonist activity on Guinea Pig Tracheal Spiral Strips relative to Kb= 0.1 uM for FPL; Inactive (neither agonist nor antagonist activity observed); conditions: Trachea
Cavia porcellus [2] = species: Cavia porcellus; assay: Evaluated for antagonist activity on Guinea Pig Tracheal Spiral Strips relative to Kb= 0.1 uM for FPL; partial agonist; conditions: Trachea
Cavia porcellus [3] = species: Cavia porcellus; assay: Evaluated for antagonist activity on Guinea Pig Tracheal Spiral Strips relative to Kb= 0.1 uM for FPL; conditions: Trachea
Cavia porcellus [4] = species: Cavia porcellus; assay: Evaluated for antagonist activity on Guinea Pig Tracheal Spiral Strips relative to Kb= 0.1 uM for FPL; Partial agonist; conditions: Trachea, filed as partial agonist
Cavia porcellus [5] = species: Cavia porcellus; assay: Evaluated for antagonist activity on Guinea Pig Tracheal Spiral Strips relative to Kb= 8.1 uM Vs LTE4; conditions: Trachea

Row | Compound | Kb (Cavia porcellus [3]) [µM] | further results
1 | CCCCCCCCCCCCCCCCC/C=C\[C@H](SC[C@H](N)C(=O)NCC(=O)O)[C@H](O)CCC(=O)O |  | Kb (Cavia porcellus [1]): inactive
2 | CCCCCCCCCCCC/C=C/[C@H](SC[C@H](N)C(=O)NCC(=O)O)[C@H](O)CCC(=O)O |  | Kb (Cavia porcellus [2]): 20 µM
3 | CCCCCCCCCCCC/C=C/[C@H](SC[C@H](N)C(=O)NCC(=O)O)[C@@H](O)CCC(=O)O |  | Kb (Cavia porcellus [2]): 40 µM
4 | CCCCCCCCCCCC/C=C\[C@H](SC[C@H](N)C(=O)NCC(=O)O)[C@H](O)CCC(=O)O | 6.3 | 
5 | CCCCCCCCCCCC/C=C\[C@H](SC[C@H](N)C(=O)NCC(=O)O)[C@H](O)CCCO | 14 | 
6 | CCCCCCCCCCCC/C=C\[C@@H](SC[C@H](N)C(=O)O)[C@@H](O)CCC(=O)O | 3.4 | 
7 | CCCCCCCCCCCC/C=C\[C@H](SC[C@H](N)C(=O)NCCO)[C@H](O)CCCO |  | Kb (Cavia porcellus [4]): Partial agonist
8 | CCCCCCCCCCCC/C=C\[C@H](SC[C@H](N)C(=O)NCC(N)=O)[C@H](O)CCC(=O)O | 3.5 | 
9 | CCCCCCCCCCCC/C=C\[C@@H](SC[C@H](N)C(=O)NCC(=O)O)[C@@H](O)CCC(=O)O | 10 | 
10 | CCCCCCC/C=C\[C@H](SC[C@H](N)C(=O)NCC(=O)O)[C@H](O)CCC(=O)O |  | Kb (Cavia porcellus [1]): inactive
11 | CCCCCCCCCCCC/C=C\[C@H](SC[C@H](N)C(=O)NCC(=O)O)[C@H](O)CCC(N)=O | 7.2 | 
12 | CCCCCCCCCCCC/C=C\[C@H](SC[C@H](N)C(=O)O)[C@H](O)CCC(=O)O |  | Kb (Cavia porcellus [5]): 14 µM
